For seven molecules, EC50 results are on record in US12139520B2 (priority 2020, dated 2024).

Each structure is given as a SMILES string. Numbered stars: 1 amine (or outer) side, 2 acyl side, 3 side chain; on linkers, the order of the positions; unused ones are H or OH. Bridge positions count the residues as written; N and C are the ends. Peptide text beside a SMILES is read from it. * marks the point of attachment. C20 diacid = O=C(O)CCCCCCCCCCCCCCCCCCC(=O)*; γGlu = O=C(O)[C@H](CCC(=O)[*:2])N[*:1]

This assay addresses T1, hAMY3 receptor (Homo sapiens, UniProt O60896+P30988).
T1 sequence (P30988 25-474): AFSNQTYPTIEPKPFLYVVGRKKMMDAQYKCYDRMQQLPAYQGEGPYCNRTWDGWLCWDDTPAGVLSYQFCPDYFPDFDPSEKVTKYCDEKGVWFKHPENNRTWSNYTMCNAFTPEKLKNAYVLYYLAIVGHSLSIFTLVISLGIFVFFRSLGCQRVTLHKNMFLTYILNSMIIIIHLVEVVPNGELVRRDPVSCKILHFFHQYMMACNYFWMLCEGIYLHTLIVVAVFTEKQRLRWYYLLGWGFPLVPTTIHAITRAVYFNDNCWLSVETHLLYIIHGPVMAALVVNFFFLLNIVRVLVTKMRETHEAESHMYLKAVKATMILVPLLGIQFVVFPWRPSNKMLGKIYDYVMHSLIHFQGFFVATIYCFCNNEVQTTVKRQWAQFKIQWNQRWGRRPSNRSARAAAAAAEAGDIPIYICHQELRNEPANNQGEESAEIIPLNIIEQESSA
T1 sequence (O60896 24-148 partner): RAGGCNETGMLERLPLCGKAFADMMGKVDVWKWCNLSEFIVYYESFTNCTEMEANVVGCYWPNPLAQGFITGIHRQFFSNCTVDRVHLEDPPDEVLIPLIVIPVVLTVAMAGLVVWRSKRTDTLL
Kind of assay: cAMP assay for in vitro receptor activation, hAMY3-R. It counts as cell-based. The settings on record: cAMP assay, hAMY3 receptor; read-out: hAMY3R EC50. Put shortly: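 Read-out is TR-FRET cAMP signal, recorded one hour after reagent addition, following 30 min room-temperature stimulation of stable hAMY3 cells with graded compound doses in casein/IBMX (0.5 mM) buffer.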
(In general: Cyclic AMP is a second messenger, typically raised through Gs and lowered through Gi signalling.)
As usually defined, the EC50 is the midpoint of the concentration-response curve. Consider `CC[C@H](C)[C@H](NC(=O)[C@H](CCCCN)NC(=O)[C@H](CO)NC(=O)[C@H](CCCNC(=N)N)NC(=O)[C@@H]1CCCN1C(=O)[C@H](C)NC(=O)[C@@H](NC(=O)[C@H](CC(N)=O)NC(=O)[C@H](CC(=O)O)NC(=O)[C@H](CCCCN)NC(=O)[C@H](CC(=O)O)NC(=O)[C@H](CCCCN)NC(=O)[C@H](CC(=O)O)NC(=O)[C@@H](NC(=O)[C@H](Cc1ccccc1)NC(=O)[C@H](CCC(N)=O)NC(=O)[C@@H](NC(=O)[C@H](CC(C)C)NC(=O)[C@H](Cc1ccccc1)NC(=O)[C@H](CC(N)=O)NC(=O)[C@H](C)NC(=O)[C@H](CC(C)C)NC(=O)[C@H](CCCNC(=N)N)NC(=O)[C@H](CCC(N)=O)NC(=O)[C@@H](NC(=O)[C@H](C)NC(=O)[C@@H]1CSSC[C@H](NC(=O)[C@@H](N)CCCCN)C(=O)N[C@@H](CC(N)=O)C(=O)N[C@@H](Cc2ccccc2)C(=O)N[C@@H](C)C(=O)N[C@@H]([C@@H](C)O)C(=O)N1)[C@@H](C)O)C(C)C)[C@@H](C)O)C(C)C)C(=O)NCC(=O)N1CCC[C@H]1C(=O)N[C@@H](CCC(N)=O)C(=O)NCC(=O)N[C@@H](Cc1ccc(O)cc1)C(N)=O` [compound 363] (H-KCNFATCATQRLANFLVQFTDKDKDNVAPRSKIGPQGY-NH2; disulfide 2-7; N-terminus assumed), for which the EC50 was found to be 0.01 nM. As for `CC[C@H](C)[C@H](NC(=O)[C@H](CC(N)=O)NC(=O)[C@@H](NC(=O)[C@H](CCCNC(=N)N)NC(=O)[C@@H]1CCCN1C(=O)[C@H](C)NC(=O)[C@@H](NC(=O)[C@H](CC(N)=O)NC(=O)[C@H](CC(=O)O)NC(=O)[C@H](CCCCN)NC(=O)[C@H](CC(=O)O)NC(=O)[C@H](CCCCN)NC(=O)[C@H](CC(=O)O)NC(=O)[C@@H](NC(=O)[C@H](Cc1ccccc1)NC(=O)[C@H](CCC(N)=O)NC(=O)[C@H](Cc1ccc(O)cc1)NC(=O)[C@H](CC(C)C)NC(=O)[C@H](Cc1ccccc1)NC(=O)[C@H](Cc1c[nH]cn1)NC(=O)[C@H](C)NC(=O)[C@H](CC(C)C)NC(=O)[C@H](CCCNC(=N)N)NC(=O)[C@H](CCC(N)=O)NC(=O)[C@@H](NC(=O)[C@@H](NC(=O)[C@@H]1CSSC[C@H](NC(=O)CN)C(=O)N[C@@H](CCCNC(=N)N)C(=O)N[C@@H](Cc2ccccc2)C(=O)NCC(=O)N[C@@H]([C@@H](C)O)C(=O)N1)[C@@H](C)O)C(C)C)[C@@H](C)O)C(C)C)[C@@H](C)O)C(=O)NCC(=O)N1CCC[C@H]1C(=O)N[C@@H](CCC(N)=O)C(=O)NCC(=O)N[C@@H](Cc1ccc(O)cc1)C(N)=O` [compound 364] (H-GCRFGTCTVQRLAHFLYQFTDKDKDNVAPRTNIGPQGY-NH2; disulfide 2-7), the EC50 turned out to be 0.01 nM. For the molecule `CC[C@H](C)[C@H](NC(=O)[C@H](CCCCN)NC(=O)[C@@H](NC(=O)[C@H](CCCNC(=N)N)NC(=O)[C@@H]1CCCN1C(=O)[C@H](C)NC(=O)[C@@H](NC(=O)[C@H](CC(N)=O)NC(=O)[C@H](CC(=O)O)NC(=O)[C@H](CCCCN)NC(=O)[C@H](CC(=O)O)NC(=O)[C@H](CCCCN)NC(=O)[C@H](CC(=O)O)NC(=O)[C@@H](NC(=O)[C@H](Cc1ccccc1)NC(=O)[C@H](CCC(N)=O)NC(=O)[C@H](Cc1ccc(O)cc1)NC(=O)[C@H](CC(C)C)NC(=O)[C@H](Cc1ccccc1)NC(=O)[C@H](Cc1c[nH]cn1)NC(=O)[C@H](C)NC(=O)[C@H](CC(C)C)NC(=O)[C@H](CCCNC(=N)N)NC(=O)[C@H](CCC(N)=O)NC(=O)[C@@H](NC(=O)[C@@H](NC(=O)[C@@H]1CSSC[C@H](NC(=O)CN)C(=O)N[C@@H](CCCNC(=N)N)C(=O)N[C@@H](Cc2ccccc2)C(=O)NCC(=O)N[C@@H]([C@@H](C)O)C(=O)N1)[C@@H](C)O)C(C)C)[C@@H](C)O)C(C)C)[C@@H](C)O)C(=O)NCC(=O)N1CCC[C@H]1C(=O)N[C@@H](CCC(N)=O)C(=O)NCC(=O)N[C@@H](Cc1ccc(O)cc1)C(N)=O` [compound 365] (H-GCRFGTCTVQRLAHFLYQFTDKDKDNVAPRTKIGPQGY-NH2; disulfide 2-7), the EC50 was determined as 0.012 nM. Then `CC[C@H](C)[C@H](NC(=O)[C@H](CCCCN)NC(=O)[C@@H](NC(=O)[C@H](CCCNC(=N)N)NC(=O)[C@@H]1CCCN1C(=O)[C@H](C)NC(=O)[C@@H](NC(=O)[C@H](CC(N)=O)NC(=O)[C@H](CC(=O)O)NC(=O)[C@H](CCCCN)NC(=O)[C@H](CC(=O)O)NC(=O)[C@H](CCCCN)NC(=O)[C@H](CC(=O)O)NC(=O)[C@@H](NC(=O)[C@H](Cc1ccccc1)NC(=O)[C@H](CCC(N)=O)NC(=O)[C@H](Cc1ccc(O)cc1)NC(=O)[C@@H](NC(=O)[C@H](CCC(N)=O)NC(=O)[C@H](Cc1c[nH]cn1)NC(=O)[C@H](C)NC(=O)[C@H](CC(C)C)NC(=O)[C@H](CCCNC(=N)N)NC(=O)[C@H](CCC(N)=O)NC(=O)[C@@H](NC(=O)[C@@H](NC(=O)[C@@H]1CSSC[C@H](NC(=O)CN)C(=O)N[C@@H](CCCNC(=N)N)C(=O)N[C@@H](Cc2ccccc2)C(=O)NCC(=O)N[C@@H]([C@@H](C)O)C(=O)N1)[C@@H](C)O)C(C)C)[C@@H](C)CC)[C@@H](C)O)C(C)C)[C@@H](C)O)C(=O)NCC(=O)N1CCC[C@H]1C(=O)N[C@@H](CC(N)=O)C(=O)NCC(=O)N[C@@H](Cc1ccc(O)cc1)C(N)=O` [compound 367] (H-GCRFGTCTVQRLAHQIYQFTDKDKDNVAPRTKIGPNGY-NH2; disulfide 2-7; N-terminus assumed), with 0.014 nM; and `CC[C@H](C)[C@H](NC(=O)[C@H](CCC(N)=O)NC(=O)[C@H](Cc1c[nH]cn1)NC(=O)[C@H](C)NC(=O)[C@H](CC(C)C)NC(=O)[C@H](CCCNC(=N)N)NC(=O)[C@H](CCC(N)=O)NC(=O)[C@@H](NC(=O)[C@@H](NC(=O)[C@@H]1CSSC[C@H](NC(=O)CN)C(=O)N[C@@H](CCCNC(=N)N)C(=O)N[C@@H](Cc2ccccc2)C(=O)NCC(=O)N[C@@H]([C@@H](C)O)C(=O)N1)[C@@H](C)O)C(C)C)C(=O)N[C@@H](Cc1ccc(O)cc1)C(=O)N[C@@H](CCC(N)=O)C(=O)N[C@@H](Cc1ccccc1)C(=O)N[C@H](C(=O)N[C@@H](CC(=O)O)C(=O)N[C@@H](CCCCN)C(=O)N[C@@H](CC(=O)O)C(=O)N[C@@H](CCCCN)C(=O)N[C@@H](CC(=O)O)C(=O)N[C@@H](CC(N)=O)C(=O)N[C@H](C(=O)N[C@@H](C)C(=O)N1CCC[C@H]1C(=O)N[C@@H](CCCNC(=N)N)C(=O)N[C@H](C(=O)N[C@@H](CCCCN)C(=O)N[C@H](C(=O)NCC(=O)N1CCC[C@H]1C(=O)N[C@@H](CCC(N)=O)C(=O)NCC(=O)N[C@@H](Cc1ccc(O)cc1)C(N)=O)C(C)C)[C@@H](C)O)C(C)C)[C@@H](C)O` [compound 368] (H-GCRFGTCTVQRLAHQIYQFTDKDKDNVAPRTKVGPQGY-NH2; disulfide 2-7; N-terminus assumed), with 0.015 nM. In the case of `CC(C)C[C@H](NC(=O)[C@H](CCCNC(=N)N)NC(=O)[C@H](CCC(N)=O)NC(=O)[C@@H](NC(=O)[C@@H](NC(=O)[C@@H]1CSSC[C@H](NC(=O)CN)C(=O)N[C@@H](CCCNC(=N)N)C(=O)N[C@@H](Cc2ccccc2)C(=O)NCC(=O)N[C@@H]([C@@H](C)O)C(=O)N1)[C@@H](C)O)C(C)C)C(=O)N[C@@H](C)C(=O)N[C@@H](Cc1c[nH]cn1)C(=O)N[C@@H](Cc1ccccc1)C(=O)N[C@@H](CC(C)C)C(=O)N[C@@H](Cc1ccc(O)cc1)C(=O)N[C@@H](CCC(N)=O)C(=O)N[C@@H](Cc1ccccc1)C(=O)N[C@H](C(=O)N[C@@H](CC(=O)O)C(=O)N[C@@H](CCCCN)C(=O)N[C@@H](CC(=O)O)C(=O)N[C@@H](CCCCN)C(=O)N[C@@H](CC(=O)O)C(=O)N[C@@H](CC(N)=O)C(=O)N[C@H](C(=O)N[C@@H](C)C(=O)N1CCC[C@H]1C(=O)N[C@@H](CCCNC(=N)N)C(=O)N[C@H](C(=O)N[C@@H](CCCCN)C(=O)N[C@H](C(=O)NCC(=O)N1CCC[C@H]1C(=O)N[C@@H](CCC(N)=O)C(=O)NCC(=O)N[C@@H](Cc1ccc(O)cc1)C(N)=O)C(C)C)[C@@H](C)O)C(C)C)[C@@H](C)O` [compound 369] (H-GCRFGTCTVQRLAHFLYQFTDKDKDNVAPRTKVGPQGY-NH2; disulfide 2-7; N-terminus assumed), the EC50 is 0.017 nM. Regarding `CC[C@H](C)[C@H](NC(=O)[C@H](CCC(N)=O)NC(=O)[C@H](Cc1c[nH]cn1)NC(=O)[C@H](C)NC(=O)[C@H](CC(C)C)NC(=O)[C@H](CCCNC(=N)N)NC(=O)[C@H](CCC(N)=O)NC(=O)[C@@H](NC(=O)[C@@H](NC(=O)[C@@H]1CSSC[C@H](NC(=O)[C@H](CCCCN)NC(=O)CC[C@H](NC(=O)CCCCCCCCCCCCCCCCCCC(=O)O)C(=O)O)C(=O)N[C@@H](CC(N)=O)C(=O)N[C@@H](Cc2ccccc2)C(=O)N[C@@H](C)C(=O)N[C@@H]([C@@H](C)O)C(=O)N1)[C@@H](C)O)C(C)C)C(=O)N[C@@H](Cc1ccc(O)cc1)C(=O)N[C@@H](CCC(N)=O)C(=O)N[C@@H](Cc1ccccc1)C(=O)N[C@H](C(=O)N[C@@H](CC(=O)O)C(=O)N[C@@H](CCCCN)C(=O)N[C@@H](CC(=O)O)C(=O)N[C@@H](CCCCN)C(=O)N[C@@H](CC(=O)O)C(=O)N[C@@H](CC(N)=O)C(=O)N[C@H](C(=O)N[C@@H](C)C(=O)N1CCC[C@H]1C(=O)N[C@@H](CCCNC(=N)N)C(=O)N[C@H](C(=O)N[C@@H](CCC(=O)O)C(=O)N[C@H](C(=O)NCC(=O)N[C@@H](CO)C(=O)N[C@@H](CC(N)=O)C(=O)NCC(=O)N[C@@H](Cc1ccc(O)cc1)C(N)=O)C(C)C)[C@@H](C)O)C(C)C)[C@@H](C)O` [compound 370] ({C20 diacid-γGlu}-KCNFATCTVQRLAHQIYQFTDKDKDNVAPRTEVGSNGY-NH2; disulfide 2-7), the half-maximal effective concentration (EC50) came to 0.017 nM.
